Source: patent US7777047B2, “Indole compound” (Takeda Pharmaceutical Company Limited, priority 2006, dated 2010)

Molecular target: T1, GST-hLGK1 (human liver GK) (Homo sapiens, UniProt P35557)
T1 construct: made in house; host or cells: Escherichia coli BL21 (Stratagene), plasmid pGEX6P-2/hLGK1
T1 sequence (P35557 1-464 isoform P35557-3): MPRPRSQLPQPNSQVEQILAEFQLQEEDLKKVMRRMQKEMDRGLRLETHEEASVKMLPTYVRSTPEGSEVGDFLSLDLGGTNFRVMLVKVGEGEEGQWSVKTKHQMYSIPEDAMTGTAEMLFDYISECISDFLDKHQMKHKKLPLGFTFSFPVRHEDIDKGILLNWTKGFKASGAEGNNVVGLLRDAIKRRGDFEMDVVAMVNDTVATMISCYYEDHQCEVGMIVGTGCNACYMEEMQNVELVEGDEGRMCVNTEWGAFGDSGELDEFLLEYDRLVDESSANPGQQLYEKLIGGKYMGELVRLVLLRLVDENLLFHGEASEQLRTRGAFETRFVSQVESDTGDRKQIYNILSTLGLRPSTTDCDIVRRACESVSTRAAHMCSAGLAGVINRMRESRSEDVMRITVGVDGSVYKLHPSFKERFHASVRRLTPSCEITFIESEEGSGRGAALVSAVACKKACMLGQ
Assay: Determination of GK activity value (GST-hLGK1, Mant-ATP, capillary electrophoresis)
Type: biochemical
Conditions: glucokinase activation; GST-hLGK1, D-glucose, 37° C. for 60 min; concentration at midpoint between maximum activity value and control group activity value
Protocol: Plasmid DNA to be used for the expression of a protein (GST-hLGK1) containing GST (Glutathione S-transferase) added to the amino terminal of human liver GK in Escherichia coli was prepared as follows.
BL21 strain (Stratagene) transformed with pGEX6P-2/hLGK1 obtained in Reference Example 1A was cultured with shaking at 37° C. for 14 hr in a 200 ml Erlenmeyer flask containing 50 ml of 100 μg/ml ampicillin-containing LB medium. The culture medium (25 ml) was diluted with 225 ml of 100 μg/ml ampicillin-containing LB medium, and further cultured with shaking at 37° C. for 1 hr in a 1 L Erlenmeyer flask. After culture, the Erlenmeyer flask was cooled on ice, 125 μL of 100 mM isopropyl-thio-β-D-galactopyranoside (IPTG) was added (final concentration 50 μM), and cultured at 17° C. for 20 hr. The culture medium was centrifuged, and the obtained fungus was disrupted by ultrasonication. The object protein (GST-hLGK1) was purified from the supernatant using Glutathione Sepharose 4B (Amersham Biosciences K.K.).
A solution (5 μL) of test compound in 50% dimethyl sulfoxide was added to each well of 384 well black plate (Nalge Nunc International K.K.). Then, a solution ([…]) obtained by diluting GST-hLGK1 obtained in Reference Example 2A with measurement buffer (containing 50 mM HEPES (pH 7.4), 200 mM KCl, 5 mM MgCl2, 2.5 mM DTT and 50 μM 2′-(or-3′)-O—(N-methylanthraniloyl)adenosine 5′-triphosphate (Mant-ATP) (Jena Bioscience GmbH)) to 6 μg/mL was added to each well.
Each well was stood at 37° C. for 10 min, and 25 mM D-glucose solution (10 μL) was added to start the reaction.
Each well after the reaction was stood at 37° C. for 60 min, and the reaction was quenched by adding 25 μL of a quenching solution (containing 200 mM HEPES (pH 7.4), 20 mM MgCl2, 200 mM EDTA, 0.03% Triton-X 100, 0.3% Coating 3 reagent (Caliper Life Sciences, Inc.)).
2′-(or-3′)-O—(N-methylanthraniloyl)adenosine 5′-triphosphate (Mant-ATP, substrate) and Mant-ADP (reaction resultant product) were separated from each well after the reaction by a microchip type capillary electrophoresis apparatus 250 HTS (Caliper Life Sciences, Inc.). The reaction rate [(reaction resultant product peak height)/(reaction resultant product peak height+substrate peak height)×100(%)] was calculated from the ratio of the substrate peak height and reaction resultant product peak height obtained by fluorescence detection (excitation wavelength 355 nm, measurement wavelength 460 nm) and used as the index of GK activity.
As a control group, the reaction rate was calculated in the same manner as above except that “solution in 50% dimethyl sulfoxide (without test compound)” was used instead of “solution of test compound in 50% dimethyl sulfoxide”.
A concentration dependency curve of the test compound was drawn with the percentage obtained by dividing the reaction rate of the well added with the test compound (test compound addition group) by the reaction rate of the control group was taken as the GK activity value of the test compound, and the concentration of the test compound at the midpoint between the maximum activity value of the test compound addition group and the control group activity value is shown as EC50 value.

First: CN(c1cccc2cc(C3=NCC(CN4CCOCC4)S3)[nH]c12)S(=O)(=O)c1cccs1 (single isomer, unassigned) [Example 274, N-methyl-N-{2-[5-(morpholinomethyl)-4,5-dihydro-1,3-thiazol-2-yl]-1H-indol-7-yl}thiophene-2-sulfonamide]
Second: O=S(=O)(c1cccs1)N(c1cccc2cc(C3=NCC(CN4CCOCC4)S3)[nH]c12)C(F)F (single isomer, unassigned) [Example 348, N-(difluoromethyl)-N-{2-[5-(morpholinomethyl)-4,5-dihydro-1,3-thiazol-2-yl]-1H-indol-7-yl}thiophene-2-sulfonamide]
The EC50 of the first is 1.8-fold higher: 81 nM for the first, 44 nM for the second. The second is the more potent here.

`COCCOc1cc(N(C)S(=O)(=O)c2ccccn2)c2[nH]c(C3=NCC(CN4CC[S+]([O-])CC4)S3)cc2c1` (single isomer, unassigned) [Example 398, N-(5-(2-methoxyethoxy)-2-{5-[(1-oxidothiomorpholino)methyl]-4,5-dihydro-1,3-thiazol-2-yl}-1H-indol-7-yl)-N-methylpyridine-2-sulfonamide] and `COCCOc1cc(N(C)S(=O)(=O)c2ccccn2)c2[nH]c(C3=NCC(CN4CCS(=O)(=O)CC4)S3)cc2c1` (single isomer, unassigned) [Example 528, N-[2-{5-[(1,1-dioxidothiomorpholino)methyl]-4,5-dihydro-1,3-thiazol-2-yl}-5-(2-methoxyethoxy)-1H-indol-7-yl]-N-methylpyridine-2-sulfonamide] are within 1.5-fold of each other in EC50: 210 nM for the first, 260 nM for the second.

First: CN(c1cc(OC(F)(F)F)cc2cc(C3=NCC(CC(N)=O)S3)[nH]c12)S(=O)(=O)c1cccs1 (single isomer, unassigned) [Example 520, 2-{2-[7-[methyl(2-thienylsulfonyl)amino]-5-(trifluoromethoxy)-1H-indol-2-yl]-4,5-dihydro-1,3-thiazol-5-yl}acetamide]
Second: CN(c1cccc2cc(C3=NCC(C(C)(C)O)S3)[nH]c12)S(=O)(=O)c1cccs1 (stereo not drawn) [Example 226, N-{2-[5-(1-hydroxy-1-methylethyl)-4,5-dihydro-1,3-thiazol-2-yl]-1H-indol-7-yl}-N-methylthiophene-2-sulfonamide]
The EC50 of the first is 3.6-fold higher: 190 nM for the first, 53 nM for the second. The second is the more potent here.

First: CN(C)C(=O)CN1CCN(Cc2cnc(-c3cc4cccc(N(C)S(=O)(=O)c5cccs5)c4[nH]3)s2)CC1 [Example 10, N,N-dimethyl-2-{4-[(2-{7-[methyl(2-thienylsulfonyl)amino]-1H-indol-2-yl}-1,3-thiazol-5-yl)methyl]piperazin-1-yl}acetamide ditrifluoroacetate]
Second: CN(c1cccc2cc(-c3ncc(CN4CCN5C(=O)OCC5C4)s3)[nH]c12)S(=O)(=O)c1cccs1 (stereo not drawn) [Example 229, N-methyl-N-(2-{5-[(3-oxotetrahydro[1,3]oxazolo[3,4-a]pyrazin-7(1H)-yl)methyl]-1,3-thiazol-2-yl}-1H-indol-7-yl)thiophene-2-sulfonamide]
The EC50 of the first is 1.8-fold higher: 210 nM for the first, 120 nM for the second. The second is the more potent here.

Compared with `CC(=O)N1CCN(Cc2cnc(-c3cc4c(Cl)ccc(N(C)S(=O)(=O)c5cccs5)c4[nH]3)s2)CC1` [Example 191, N-(2-{5-[(4-acetylpiperazin-1-yl)methyl]-1,3-thiazol-2-yl}-4-chloro-1H-indol-7-yl)-N-methylthiophene-2-sulfonamide], `CC(=O)N1CCN(Cc2nnc(-c3cc4cccc(N(C)S(=O)(=O)c5cccs5)c4[nH]3)s2)CC1` [Example 198, N-(2-{5-[(4-acetylpiperazin-1-yl)methyl]-1,3,4-thiadiazol-2-yl}-1H-indol-7-yl)-N-methylthiophene-2-sulfonamide] is 17-fold higher in EC50: 31 nM for the first, 530 nM for the second.

Compared with `CN(c1cccc2cc(C3=NCC(C)(CCN4CCOCC4)S3)[nH]c12)S(=O)(=O)c1cccs1` (stereo not drawn) [Example 200, N-methyl-N-{2-[5-methyl-5-(2-(morpholino)ethyl)-4,5-dihydro-1,3-thiazol-2-yl]-1H-indol-7-yl}thiophene-2-sulfonamide], `CC(=O)N1CCN(CC2CN=C(c3cc4cccc(N(C)S(=O)(=O)c5cccs5)c4[nH]3)S2)CC1` (stereo not drawn) [Example 218, N-(2-{5-[(4-acetylpiperazin-1-yl)methyl]-4,5-dihydro-1,3-thiazol-2-yl}-1H-indol-7-yl)-N-methylthiophene-2-sulfonamide] is 3-fold higher in EC50: 61 nM for the first, 180 nM for the second.

`CCN(c1cccc2cc(-c3ncc(CN4CCn5cnnc5C4)s3)[nH]c12)S(=O)(=O)c1cccs1` [Example 236, N-{2-[5-(5,6-dihydro[1,2,4]triazolo[4,3-a]pyrazin-7(8H)-ylmethyl)-1,3-thiazol-2-yl]-1H-indol-7-yl}-N-ethylthiophene-2-sulfonamide] showed an EC50 of 250 nM.

System: not given
Assay: not given
Conditions: not given

First: CN(c1cc(OCCCS(C)(=O)=O)cc2cc(C3=NCC(CN4CC[S+]([O-])CC4)S3)[nH]c12)S(=O)(=O)c1ccccn1 (stereo not drawn) [Example 323, N-methyl-N-(5-[3-(methylsulfonyl)propoxy]-2-{5-[(1-oxidothiomorpholino)methyl]-4,5-dihydro-1,3-thiazol-2-yl}-1H-indol-7-yl)pyridine-2-sulfonamide]
Second: CC(=O)N1CCN(CC2CN=C(c3cc4cc(OCCCS(C)(=O)=O)cc(N(C)S(=O)(=O)c5ccccn5)c4[nH]3)S2)CC1 (stereo not drawn) [Example 324, N-{2-{5-[(4-acetylpiperazin-1-yl)methyl]-4,5-dihydro-1,3-thiazol-2-yl}-5-[3-(methylsulfonyl)propoxy]-1H-indol-7-yl}-N-methylpyridine-2-sulfonamide]
The melting point of the first is lower: 107 to 110 °C for the first, 165 to 167 °C for the second.

First: CN(c1cc(OCCCS(C)(=O)=O)cc2cc(C3=NCC(CN4CCN(S(C)(=O)=O)CC4)S3)[nH]c12)S(=O)(=O)c1ccccn1 (stereo not drawn) [Example 325, N-methyl-N-{2-(5-{[4-(methylsulfonyl)piperazin-1-yl]methyl}-4,5-dihydro-1,3-thiazol-2-yl)-5-[3-(methylsulfonyl)propoxy]-1H-indol-7-yl}pyridine-2-sulfonamide]
Second: CN(c1cccc2cc(C3=NCC(CC(=O)O)S3)[nH]c12)S(=O)(=O)c1ccccn1 (stereo not drawn) [Example 333, (2-{7-[methyl(pyridin-2-ylsulfonyl)amino]-1H-indol-2-yl}-4,5-dihydro-1,3-thiazol-5-yl)acetic acid]
The melting point of the first is lower: 151 to 153 °C for the first, 231 to 233 °C for the second.

First: CN(c1cccc2cc(C3=NCC(CC(N)=O)S3)[nH]c12)S(=O)(=O)c1ccccn1 (stereo not drawn) [Example 334, 2-(2-{7-[methyl(pyridin-2-ylsulfonyl)amino]-1H-indol-2-yl}-4,5-dihydro-1,3-thiazol-5-yl)acetamide]
Second: CN(c1cc(OC(F)(F)F)cc2cc(C3=NCC(CC(N)=O)S3)[nH]c12)S(=O)(=O)c1cccs1 (stereo not drawn) [Example 384, 2-{2-[7-[methyl(2-thienylsulfonyl)amino]-5-(trifluoromethoxy)-1H-indol-2-yl]-4,5-dihydro-1,3-thiazol-5-yl}acetamide]
The melting point of the first is higher: 206 to 207 °C for the first, 186 to 187 °C for the second.

Compared with `CN(c1cccc2cc(C3=NCC(CC(N)=O)S3)[nH]c12)S(=O)(=O)c1ccccn1` (stereo not drawn) [Example 338, 2-(2-{7-[methyl(pyridin-2-ylsulfonyl)amino]-1H-indol-2-yl}-4,5-dihydro-1,3-thiazol-5-yl)acetamide], `O=S(=O)(c1cccs1)N(c1cccc2cc(C3=NCC(CN4CCOCC4)S3)[nH]c12)C(F)F` (stereo not drawn) [Example 346, N-(difluoromethyl)-N-{2-[5-(morpholinomethyl)-4,5-dihydro-1,3-thiazol-2-yl]-1H-indol-7-yl}thiophene-2-sulfonamide] is higher in melting point: 148 to 149 °C for the first, 185 to 186 °C for the second.
